Measurements reported in PubChem BioAssay (NCI).
Values joined by “and” are separate entries in the source; they are usually repeats but may differ in a detail not shown here. Equal entries are not always repeated.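 Tested at 5 concentrations; 48 h exposure; 96-well plates; endpoints linearly interpolated, else capped at highest concentration. Here, GI50 denotes the concentration required for 50% inhibition of growth. TGI marks complete inhibition of growth.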

What was measured:
Test in all cases: inhibition of tumour cell growth, NCI panel, 48 h
IGROV1 ovarian = system: IGROV1 ovarian
K-562 leukemia = system: K-562 leukemia
NCI-H226 lung = system: NCI-H226 lung
NCI/ADR-RES ovarian = system: NCI/ADR-RES ovarian
PC-3 prostate = system: PC-3 prostate
SF-268 CNS = system: SF-268 CNS
SF-539 CNS = system: SF-539 CNS
SK-OV-3 ovarian = system: SK-OV-3 ovarian
SW-620 colon = system: SW-620 colon
UO-31 renal = system: UO-31 renal

| Structure (SMILES) | GI50 (IGROV1 ovarian) | TGI (IGROV1 ovarian) | GI50 (K-562 leukemia) | TGI (K-562 leukemia) | GI50 (NCI-H226 lung) | TGI (NCI-H226 lung) | GI50 (NCI/ADR-RES ovarian) | TGI (NCI/ADR-RES ovarian) | GI50 (PC-3 prostate) | TGI (PC-3 prostate) | GI50 (SF-268 CNS) | TGI (SF-268 CNS) | GI50 (SF-539 CNS) | TGI (SF-539 CNS) | GI50 (SK-OV-3 ovarian) | TGI (SK-OV-3 ovarian) | GI50 (SW-620 colon) | TGI (SW-620 colon) | GI50 (UO-31 renal) | TGI (UO-31 renal) |
| --- | --- | --- | --- | --- | --- | --- | --- | --- | --- | --- | --- | --- | --- | --- | --- | --- | --- | --- | --- | --- |
| COc1ccc(CC(=O)c2ccc(O)cc2O)cc1 | 53.4 µM | > 100 µM | 40.3 µM | > 100 µM | > 100 µM | > 100 µM | 58.8 µM | > 100 µM | 41.1 µM | > 100 µM | 94.5 µM | > 100 µM | > 100 µM | > 100 µM | > 100 µM | > 100 µM | > 100 µM | > 100 µM | 15.4 µM | > 100 µM |
| COc1cc(/C=C/C(=O)c2ccc(F)cc2)ccc1OCCCN1CCN(CC(=O)Nc2ccc(Cl)cc2C(=O)c2ccccc2Cl)CC1 | 6.17 µM | 41.6 µM | 3.6 µM | > 100 µM | 18.4 µM | 37.2 µM | 13 µM | > 100 µM | 5.06 µM | 45.7 µM | 16.9 µM | > 100 µM | 10.2 µM | 23.3 µM | 17.4 µM | 44.2 µM | 2.73 µM | 10.7 µM | 2.45 µM | 20 µM |
| Cc1nn(C)c(COc2ccc(N3CCN(S(=O)(=O)N(C)C)CC3)cc2)c1-c1cccc2c(CCCOc3cccc4ccccc34)c(C(=O)O)n(CCN3CCOCC3)c12 | 3.52 µM | 11.7 µM | 3.84 µM | > 100 µM | 3.19 µM | 15.9 µM | 36.5 µM | > 100 µM | 3.27 µM | 10.7 µM | 3.66 µM | 15.8 µM | 2.44 µM | 6.17 µM | 2.64 µM | 10.3 µM | 3.59 µM | 15 µM | 6.13 µM | 20.3 µM |
| O=S(=O)(c1cccc2c(I)cccc12)N1CCCNCC1 | 15.8 µM | 31.4 µM | 10.9 µM | 30.4 µM | 17.8 µM | 34.8 µM | 20.2 µM | 43.5 µM | 14.9 µM | 32.8 µM | 26.6 µM | > 100 µM | 15.7 µM | 32.8 µM | 20.2 µM | 37.6 µM | 17.1 µM | 51.4 µM | 15.6 µM | 34 µM |
| CC1=C(C(=O)N(C)c2ccc(Cl)c(C(=O)OC(C)C)c2)SCCO1 | – | > 100 µM | – | > 100 µM | – | > 100 µM | – | > 100 µM | – | > 100 µM | – | > 100 µM | – | > 100 µM | – | > 100 µM | – | > 100 µM | – | > 100 µM |
| C#CCNCCN1C(=O)c2ccc3c4c(ccc(c24)C1=O)C(=O)N(CCNCC#C)C3=O | 2.07 µM | 10.4 µM | 5.25 µM | 50 µM | 2.96 µM | 12.2 µM | 4.07 µM | 24.4 µM | 7.09 µM | 21.2 µM | 3.78 µM | 24.2 µM | 4.76 µM | 11.2 µM | 6.3 µM | 22.6 µM | 1.92 µM | 11.8 µM | 3.09 µM | 12.3 µM |
| CN1CCc2[nH]nc(-c3n[nH]c4c3CN(C)CC4)c2C1 | – | > 100 µM | – | > 100 µM | – | > 100 µM | – | > 100 µM | – | > 100 µM | – | > 100 µM | – | > 100 µM | – | > 100 µM | – | > 100 µM | – | > 100 µM |
| CC(C)CCNCC(O)Cn1c2ccccc2c2ccccc21 (stereo not given) | 14 µM | 32.1 µM | 3.69 µM | 13.2 µM | 15.7 µM | 37.9 µM | 14.2 µM | 30.7 µM | 10.6 µM | 23 µM | 12.2 µM | 26.4 µM | 15.8 µM | 30.2 µM | 17.2 µM | 31.2 µM | 10.4 µM | 24 µM | 9.21 µM | 23.3 µM |
| O=[N+]([O-])c1cc(Cl)cnc1Br | – | 8.32 µM | – | 6.08 µM | – | 6.62 µM | – | 6.72 µM | – | 20.2 µM | – | 5.81 µM | – | 4.5 µM | – | 22.4 µM | – | 12.7 µM | – | 3.59 µM |
| COc1ccc(C2=CC(c3ccc(OC)cc3Br)N3C=CSC3=N2)cc1 (stereo not given) | 7.31 µM | 30.7 µM | 2.47 µM | 8.26 µM | 14.7 µM | 37.8 µM | 4.43 µM | 29 µM | 6.4 µM | 31.9 µM | 13.7 µM | 48.5 µM | 4.61 µM | 17.1 µM | 6.78 µM | 27 µM | 2 µM | 4.79 µM | 7.31 µM | 21.2 µM |
| O=[N+]([O-])c1ccc(N2CCC(CCCC3CCN(c4ccc([N+](=O)[O-])cc4[N+](=O)[O-])CC3)CC2)c([N+](=O)[O-])c1 | – | 25.3 µM | – | 55.9 µM | – | 56.6 µM | – | 57.7 µM | – | 33.7 µM | – | 42.6 µM | – | 36.7 µM | – | 37.5 µM | – | 57.4 µM | – | 26.9 µM |
| COc1ccc(Cl)c(Nc2nc3ccccc3nc2NS(=O)(=O)c2cccc(NC(=O)C(C)(C)N)c2)c1 | 1.41 µM and 0.686 µM | 6.63 µM and 4.86 µM | 14.9 µM and > 10 µM | 32.6 µM and > 10 µM | 15.3 µM and > 10 µM | 40.2 µM and > 10 µM | 12.1 µM and > 10 µM | 32.3 µM and > 10 µM | 3.42 µM and 2.65 µM | 17.5 µM and > 10 µM | 10.9 µM and 9.94 µM | 25.5 µM and > 10 µM | 7.35 µM and 4.42 µM | 20.4 µM and > 10 µM | 5 µM and 1.89 µM | 18.6 µM and > 10 µM | 11.6 µM and > 10 µM | 26.2 µM and > 10 µM | 1.9 µM and 2.03 µM | 13.5 µM and > 10 µM |
| N#CSCc1ccc(Cl)c(CSC#N)c1 | 5.9 µM | 49.8 µM | 0.0576 µM | > 45.5 µM | 3.11 µM | 10.3 µM | 1.9 µM | > 60.9 µM | 1.35 µM | 27.1 µM | 0.298 µM | 37.4 µM | 0.117 µM | 16.6 µM | 20 µM | > 100 µM | 0.0395 µM | 15.7 µM | 0.154 µM | 12.8 µM |
| CC1=C(CCC(C)NCc2ccc(OCCCN3CCCCC3)cc2)C(C)(C)CCC1 (stereo not given) | 1.68 µM | 3.89 µM | 0.227 µM | 0.509 µM | 3.82 µM | 16.5 µM | 1.72 µM | 3.47 µM | 1.54 µM | 3.42 µM | 1.49 µM | 3.08 µM | 1.64 µM | 3.22 µM | 2.06 µM | 3.76 µM | 1.6 µM | 3.32 µM | 1.56 µM | 2.97 µM |
